Results published in PMC11555261, “Targeting USP11 regulation by a novel lithium-organic coordination compound improves neuropathologies and cognitive functions in Alzheimer transgenic mice” (EMBO Molecular Medicine, 2024).

Molecular target: T1, USP11 (recombinant USP11 protein) (Homo sapiens, UniProt P51784)
T1 construct: commercial recombinant human protein from Sf9 insect cells; His tag implied by RED-tris-NTA labelling
Experiment: microscale thermophoresis
Assay type: binding

T1 sequence (P51784 whole entry): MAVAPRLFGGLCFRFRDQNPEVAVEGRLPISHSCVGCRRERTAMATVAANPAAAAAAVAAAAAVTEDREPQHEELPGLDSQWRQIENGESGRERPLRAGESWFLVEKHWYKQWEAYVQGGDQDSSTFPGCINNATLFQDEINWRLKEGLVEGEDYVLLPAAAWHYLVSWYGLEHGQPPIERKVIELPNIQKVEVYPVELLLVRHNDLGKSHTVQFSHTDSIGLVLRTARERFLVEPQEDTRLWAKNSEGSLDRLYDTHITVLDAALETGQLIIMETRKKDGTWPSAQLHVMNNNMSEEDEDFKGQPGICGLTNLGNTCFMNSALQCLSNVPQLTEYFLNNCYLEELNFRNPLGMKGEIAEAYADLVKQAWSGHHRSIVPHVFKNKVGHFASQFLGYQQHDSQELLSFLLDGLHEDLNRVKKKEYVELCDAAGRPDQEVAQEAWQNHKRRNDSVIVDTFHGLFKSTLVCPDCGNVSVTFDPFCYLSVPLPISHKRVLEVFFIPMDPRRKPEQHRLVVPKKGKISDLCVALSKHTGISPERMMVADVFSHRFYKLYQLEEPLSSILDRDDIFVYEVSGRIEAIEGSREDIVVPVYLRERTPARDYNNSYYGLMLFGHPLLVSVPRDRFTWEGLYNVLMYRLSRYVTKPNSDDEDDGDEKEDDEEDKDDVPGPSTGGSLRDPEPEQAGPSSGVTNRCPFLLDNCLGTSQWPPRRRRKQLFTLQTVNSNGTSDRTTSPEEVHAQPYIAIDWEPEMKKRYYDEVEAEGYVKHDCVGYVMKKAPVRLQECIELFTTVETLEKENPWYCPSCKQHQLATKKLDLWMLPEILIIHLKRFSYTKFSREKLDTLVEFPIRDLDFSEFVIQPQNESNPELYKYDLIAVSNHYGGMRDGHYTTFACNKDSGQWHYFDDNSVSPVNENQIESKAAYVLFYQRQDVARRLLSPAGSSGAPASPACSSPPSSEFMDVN

O=C(O)[C@@H]1CCCN1 [IsoLiPro]
Kd: 43.4 µM
